Results taken from patent US5206382A, “Indole derivatives, pharmaceutical compositions and methods of treating neurological and psychiatric disorders” (Fidia Georgetown Institute for the Neurosciences, priority 1991, dated 1993).

Legend:
[1] = target: T1, BZD binding site located on the GABAA receptor (Rattus norvegicus, UniProt P18508+P62813); assay: ^3 H-FLUMAZENIL binding, crude synaptic membranes; design: species or system Sprague Dawley rat; conditions: 2 nM ^3 H-FLUMAZENIL, rat cerebellum membranes
T1 construct: The cerebella were removed and incubated for 20 minutes in ice cold double distilled water; from tissue; host or cells: crude synaptic membranes of Sprague Dawley rat cerebellum
Experimental: (§1) Crude Synaptic Membrane Preparation: Sprague Dawley rats (200-250 gr.) were killed by decapitation. The cerebella were removed and incubated for 20 minutes in ice cold double distilled water after homogenization with Polytron. The homogenate was centrifuged at 18,000 xg at 4° C. for 10 minutes. The pellet was suspended in ice-cold buffer 50 mM Na/KPO4(pH 7.4) and centrifuged at 18,000 xg at 4° C. for 10 minutes. After two other centrifugations, the membranes were suspended in 5 ml of buffer and the proteins were measured.
(§2) The membranes were diluted with 50 mM Na/KPO4 buffer (pH 7.4) to a concentration of 150 μg of protein/ml, and 150 μl aliquots of the suspension were incubated with 50 μl of the different ligands to be tested: ^3 H-ZOLPIDEM(2 nM), ^3 H-FLUMAZENIL (2 nM), ^3 H-GABA(10 nM), ^3 H-MK 801(5 nM), ^3 H-KETANSERIN(1 nM), ^3 H-GLYCINE(20 nM), ^3 H-SPIPERONE(1 nM), ^3 H-AMPA(10 nM), ^3 H-3-PPP(1 nM), and ^3 H-NALOXONE(1 nM). Non-specific binding was assessed by displacing with 10 to 1000/μM of cold ligand.

Sprague Dawley rats = assay: Elevated X maze test; format: in vivo, Sprague Dawley rat; conditions: for Entries in open arms, test after 10 min injection / Entries in open arms, test after 20 min injection / Entries in open arms, test after 30 min injection: 20 mg/kg i.v., rats; for behavioral output of rats in the elevated X maze test: in words
Experimental: The elevated X maze is a behavioral test to detect anxiolytic drugs in rodents. […] The plus-maze consists of two open arms (43×8 cm) and two similarly sized enclosed arms with 9 cm high walls, arranged so that the arms of the same type are opposite each other. There is a central square of 8 cm. The apparatus is elevated to a height of 10 cm and each arm is divided into 3 squares.
Sprague Dawley rats weighing 200-250 gr. were housed in a room with a 12 hour light: 12 hour dark cycle and were allowed free access to food and water. After an i.v. injection of different indole derivatives, the rats were kept separated for 10, 20 or 30 minutes before testing. The testing period commenced when each animal was placed onto the central square of the maze. The number of entries in each arm was then recorded for 5 minutes. The maze was cleaned with water after each trial. The number of entries in the open arms provided a measure of anxiolytic activity of the drugs.

[2] = target: T2, MBR (mitochondrial benzodiazepine recognition site) (Rattus norvegicus, UniProt P16257); assay: Displacement of ^3 H-RO5-4864 from mitochondrial BZD recognition site (MBR); format: binding, Sprague Dawley rat; conditions: displacement of 1 nM ^3 H-RO5-4864, rat mitochondria; range in parentheses
T2 construct: Brain and adrenal glands were removed and homogenized with Polytron; from tissue; host or cells: mitochondrial fraction of Sprague Dawley rat brain and adrenal glands
Experimental: (§3) Mitochondrial Preparation: Sprague Dawley rats (200-250 gr.) were killed by decapitation. Brain and adrenal glands were removed and homogenized with Polytron for 15 minutes in ice cold buffer (10 mM Na/KPO4, 0.32M sucrose, pH 7.4). The homogenate was centrifuged for 15 minutes at 6,500 xg at 4° C. The resulting supernatant was centrifuged for 15 minutes at […] at 4° C. The pellet was suspended in buffer (20 times) by gentle homogenization and centrifuged at 10,000 xg at 4° C. for 15 minutes. The washed mitochondrial pellet was stored at -70° C.
(§4) For the binding assay the mitochondrial fraction was diluted with 50 mM Na/KPO4 buffer (pH 7.4) to give a final protein concentration of […] in 100 μl buffer. This suspension was incubated with 1 nM of ^3 H PK-11195 or ^3 H RO 5-4864 (50 μl) with or without 10/μM unlabeled PK-11195 or RO 5-4864 to assess the extent of total and non-specific binding. Different amounts of indole derivatives were added to the incubation medium in a volume of 50 μl. After incubation for 60 minutes at 4° C., samples were filtered and the radioactivity was measured in a scintillation counter.

[3] = target: T2, MBR (mitochondrial benzodiazepine recognition site); assay: Displacement of ^3 H-PK11195 from mitochondrial BZD recognition site (MBR); format: binding, Sprague Dawley rat; conditions: for IC50: displacement of 1 nM ^3 H-PK11195, rat mitochondria, range in parentheses; for ^3 H-PK11195 / ^3 H-RO5-4864: ratio of the two IC50 values
Experimental: as §3, §4

[4] = target: ^3 H-GABA binding (crude synaptic membrane); assay: ^3 H-GABA binding, crude synaptic membranes; design: species or system Sprague Dawley rat; conditions: 10 nM ^3 H-GABA, rat cerebellum membranes
Experimental: as §1
as §2, with “ligand. The different indole derivatives were added in a volume of 50 μl in a concentration varying from 10^-9 to 10^-3 M. The results are reported in Table I hereinbelow.” for “ligand.”

[5] = target: T3, ^3 H-ZOLPIDEM binding (crude synaptic membrane) (Rattus norvegicus, UniProt P18508+P62813); assay: ^3 H-ZOLPIDEM binding, crude synaptic membranes; design: species or system Sprague Dawley rat; conditions: 2 nM ^3 H-ZOLPIDEM, rat cerebellum membranes
T3 construct: from tissue; host or cells: crude synaptic membranes of Sprague Dawley rat cerebellum
Experimental: as §1
as §2, with “ligand. The different indole derivatives were added in a volume of 50 μl in a concentration varying from 10^-9 to 10^-3 M. The results are reported in Table I hereinbelow.” for “ligand.”

[6] = test system: mitochondrial pregnenolone formation, C6-2B glioma cells; assay: Pregnenolone formation in glial mitochondria (C6-2B glioma cells); format: biochemical; conditions: for Effective concentration, maximal / EC50: C6 glial cell mitochondria, 15 minutes at 37° C.; for Stimulation %: pregnenolone formation, increase over the control; for EC50: read-out: Effective concentration, 50%
Experimental: The mixture was preincubated for 5 minutes at 37° C. The incubation mixture was extracted with 5 ml chloroform/methanol (2:1, vol/vol), and the organic phase was evaporated to dryness. Pregnenolone was measured by a specific radioimmunoassay using an antibody obtained from Radioassay Systems Laboratories, Carson, Calif.

T1 sequence (P62813 28-455): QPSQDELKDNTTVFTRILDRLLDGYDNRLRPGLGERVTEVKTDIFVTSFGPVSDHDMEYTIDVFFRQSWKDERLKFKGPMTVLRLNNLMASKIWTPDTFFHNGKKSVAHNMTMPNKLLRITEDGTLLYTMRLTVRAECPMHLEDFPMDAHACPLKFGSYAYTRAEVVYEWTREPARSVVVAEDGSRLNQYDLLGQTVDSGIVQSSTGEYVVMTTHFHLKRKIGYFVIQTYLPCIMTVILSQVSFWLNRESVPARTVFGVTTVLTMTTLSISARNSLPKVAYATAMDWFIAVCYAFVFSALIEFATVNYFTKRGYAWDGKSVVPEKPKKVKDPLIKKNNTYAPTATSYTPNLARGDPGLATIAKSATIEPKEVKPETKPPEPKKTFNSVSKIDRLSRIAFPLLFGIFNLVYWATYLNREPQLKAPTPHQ
T1 sequence (P18508 39-466): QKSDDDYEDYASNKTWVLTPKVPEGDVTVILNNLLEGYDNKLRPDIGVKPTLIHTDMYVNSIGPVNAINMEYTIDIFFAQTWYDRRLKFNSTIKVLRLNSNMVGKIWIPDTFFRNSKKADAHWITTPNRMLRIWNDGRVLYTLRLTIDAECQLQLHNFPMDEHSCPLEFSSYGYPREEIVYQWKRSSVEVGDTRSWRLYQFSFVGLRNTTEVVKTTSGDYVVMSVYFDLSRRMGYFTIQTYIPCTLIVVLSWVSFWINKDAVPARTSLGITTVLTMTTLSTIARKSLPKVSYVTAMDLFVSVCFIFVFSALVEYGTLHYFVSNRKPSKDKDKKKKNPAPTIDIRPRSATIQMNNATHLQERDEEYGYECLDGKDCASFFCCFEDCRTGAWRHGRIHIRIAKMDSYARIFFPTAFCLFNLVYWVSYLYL
T3 sequence (P62813 28-455): as the sequence (P62813 28-455) above
T3 sequence (P18508 39-466): as the sequence (P18508 39-466) above

SMILES	IC50 [1] [nM]	Entries in open arms, test after 10 min injection (Sprague Dawley rats)	behavioral output of rats in the elevated X maze test (Sprague Dawley rats)	IC50 [2] [nM]	IC50 [3] [nM]	IC50 [4] [nM]	Entries in open arms, test after 20 min injection (Sprague Dawley rats)	Entries in open arms, test after 30 min injection (Sprague Dawley rats)	IC50 [5] [nM]	^3 H-PK11195 / ^3 H-RO5-4864 [3]	Effective concentration, maximal [6]	Stimulation % [6]	binding to MBR in words ([3]; Tables I and II compared)	EC50 [6] [nM]	intrinsic efficacy (pregnenolone formation) ([6]; in words)
CCCN(CCC)C(=O)C(C)c1c(-c2ccc(Cl)cc2)[nH]c2ccccc12 (stereo not drawn) [compound 19]	> 1000	1	increase the behavioral output	> 1000	> 1000										
CCCCCCNC(=O)Cc1c(-c2ccccc2)[nH]c2ccccc12 [Compound No. 13]	> 1000	2	increase the behavioral output	32.5	57.5	> 1000	2	3	> 1000	1.8					
CCCN(CCC)C(=O)Cc1c(-c2cccs2)[nH]c2ccccc12 [Compound No. 10]	> 1000			14.5	24				> 1000	1.6					
CCCN(CCC)C(=O)Cc1c2n(c3ccccc13)Cc1ccccc1-2 [Compound No. 16]	> 1000			40	30					0.75					
CCCN(CCC)C(=O)CCc1c(-c2ccc(Cl)cc2)[nH]c2ccc(Cl)cc12 [compound 11]	> 1000			120	180				> 1000	1.5					
CCCN(CCC)C(=O)Cc1c(-c2ccc(Cl)cc2)[nH]c2ccc(Cl)cc12 [Compound No. 6]	> 1000			40	45				> 1000	1.1					
O=C(Cc1c(-c2ccccc2)[nH]c2ccccc12)N1CCCCC1 [Compound No. 3]				59	84				> 1000	1.4					
CCCN(CCC)C(=O)Cc1c(-c2ccc(Cl)cc2)n(C)c2ccccc12 [compound 22]	> 1000	3	increase the behavioral output	200	200		2	6		1	10^-8 M	170%			
CCCN(CCC)C(=O)Cc1c(-c2cccc(Cl)c2)[nH]c2ccccc12 [compound 21]	> 1000	2	increase the behavioral output	80	100	> 1000	4	0		1.2					
Cc1ccc(-c2[nH]c3ccc(C)cc3c2CC(=O)N(C)C)cc1 [Compound No. 9]				255	> 1000				> 1000	> 3	> 10^-6 M	none			
c1ccc(-c2[nH]c3ccccc3c2CC2=NCCN2)cc1 [Compound No. 15]	> 1000			> 1000	> 1000										
CCCN(CCC)C(=O)Cc1c(-c2ccc(Br)cc2)[nH]c2ccccc12 [compound 18]	> 1000	2	increase the behavioral output	36	75					2					
CCCN(CCC)C(=O)Cc1c(-c2ccc(Cl)cc2)[nH]c2ccccc12 [compound 5]	> 1000			25.5	28.5	> 1000			> 1000	1.1					
CN(C)C(=O)Cc1c(-c2ccccc2)[nH]c2ccccc12 [Compound No. 7]	> 1000			600	600				> 1000	1	10^-7 M	131%	relatively high affinity	10	low intrinsic efficacy
CCCN(CCC)C(=O)Cc1c(-c2ccc(F)cc2)[nH]c2ccccc12 [compound 20]	> 1000	3	increase the behavioral output	50	100	> 1000	2	6		2	10^-9 M	183%		0.33	
CCCN(CCC)C(=O)C=Cc1c(-c2ccc(Cl)cc2)[nH]c2ccccc12 [compound 24]	> 1000	3	increase the behavioral output	600	700		2	3	> 1000	1.1					
CCCN(CCC)C(=O)Cc1c(-c2cccs2)[nH]c2ccc(Cl)cc12 [compound 17]	> 1000			37.5	50					1.3					
CCCN(CCC)C(=O)Cc1c(-c2ccc(C)cc2)[nH]c2ccc(C)cc12 [Compound No. 8]				41.5	68.5				> 1000	1.6	10^-7 M	220%		33	
